From patent publication EP3454861B1, “BENZOXAZINE OR QUINAZOLINE DERIVATIVES FOR USE IN THE TREATMENT OF ALZHEIMER'S DISEASE” (Biocodex, priority 2016, dated 2017)

System: peroxydation lipidique
Assay: Lipid peroxidation measurement in mouse hippocampus (colorimetric, CHP equivalents)
Format: in vivo, souris
Settings: Etifoxine 12,5-50 mg/kg per day IP, Aβ25-35 ICV, day 10
Source text: Le 1^er jour : une version « mélangée » (scrambled) du peptide amyloïde β25-35 (Sc.Aβ, témoin négatif) ou le peptide amyloïde β25-35 (Aβ25-35) est injecté par voie intra-cérébroventriculaire (ICV) (le peptide Aβ25-35 provoque l'intoxication cellulaire). Entre le 1^er jour et le 10^ème jour, les traitements sont administrés une fois par jour par voie intrapéritonéale (IP).
A la fin de la session de rétention d'évitement passif, le 10^ème jour, les animaux sont sacrifiés par décapitation. L'hippocampe et le cortex frontal sont disséqués et congelés dans l'azote liquide. L'hippocampe est utilisé pour mesurer le taux de peroxydation lipidique à l'aide d'une méthode colorimétrique et pour évaluer les taux de 4 marqueurs biochimiques par des tests ELISA. Le cortex est conservé à -80°C en attente d'analyses supplémentaires. Les plasmas sont également conservés en attente d'analyses supplémentaires. Les échantillons biologiques sont jetés après 3 mois.
Les souris de chaque groupe sont sacrifiées par décapitation et les deux hippocampes sont prélevés, pesés et conservés dans de l'azote liquide jusqu'à l'analyse. […] Après avoir lu l'absorbance à 580 nm (A5801), 10 µl d'hyperoxyde de cumène (CHP) (1 mM) sont ajoutés à l'échantillon et il est incubé pendant 30 minutes à température ambiante pour déterminer le degré d'oxydation maximal. L'absorbance est mesurée à 580 nm (A5802). […]

SMILES: CCNC1=Nc2ccc(Cl)cc2C(C)(c2ccccc2)O1 (stereo not shown) [Etifoxine, chlorhydratede 6-chloro-2-éthylamino-4-méthyl-4-phényl-4H-[3,1]benzoxazine]
- peroxydation lipidique dans l'hippocampe (stress oxydatif induit par Aβ25-35): diminuer de manière dose-sensible le stress oxydatif
